From US20220025058A1, “METHODS AND PHARMACEUTICAL COMPOSITIONS FOR THE TREATMENT OF ACUTE MYELOID LEUKEMIA BY ERADICATING LEUKEMIC STEM CELLS” (INSERM (INSTITUT NATIONAL DE LA SANTÉ ET DE LA RECHERCHE …, priority 2018, published 2022) come the findings set out here.

The test concerns MOLM-14 cells. Briefly: EC50 experiments (MTS cell viability) on MOLM-14 cells sorted from xenografted mice. It counts as cell-based. The settings on record: Homo sapiens, MOLM-14, 168 h, after one week of in vitro culture. As for the experimental part: The day before experiment, cells were adjusted to 3×10^5 cells/ml final concentration and plated in a 96-well plate (final volume: 100 μl). To measure half-maximal inhibitory concentration (EC50), increased concentrations of AraC or idarubicin were added to the medium. After two days, 20 μl per well of MTS solution (Promega) was added for two hours and then absorbance was recorded at 490 nm with a 96-well plate reader. The doses that decrease cell viability to 50% (EC50) were analyzed Nonlinear regression log [inhibitor] vs. normalized response-variable slope with GraphPad Prism software.
After 10 days, shRNA expression was activated and the mice were treated with 30 mg/kg/day cytarabine for 5 days (FIG. 2A). […] Also MOLM-14 expressing shCTR and treated by vehicle or AraC were sorted by flow cytometry, and plated in vitro for further experiments. […] To evaluate the role of CALCRL in this chemoresistance acquired in vivo, we undertook to deplete CALCRL in these cells.

Setting [1] is: MOLM-14 shCTR cells from AraC treated group mice.
Setting [2] is: MOLM-14 shCTR cells from vehicle group mice.

For orientation: EC50 means the concentration needed to bring the measured effect to its halfway point. Low values mean higher potency in that assay, high ones lower potency in that assay.

For `Nc1ccn([C@@H]2O[C@H](CO)[C@@H](O)[C@@H]2O)c(=O)n1` [AraC, cytarabine], the EC50 is, setting by setting: under setting [1], 6710 nM; under setting [2], 2240 nM.
`CC(=O)[C@]1(O)Cc2c(O)c3c(c(O)c2[C@@H](O[C@H]2C[C@H](N)[C@H](O)[C@H](C)O2)C1)C(=O)c1ccccc1C3=O` [idarubicin]: the EC50 runs as follows: under setting [1], 60.5 nM; under setting [2], 28.6 nM.
